Data taken from patent US5538976A, “Substituted tertiary amino compound or salt thereof” (Yamanouchi Pharmaceutical Co., Ltd., priority 1992, dated 1996).

How the values were obtained:
aromatase [1] = target: T1, aromatase (Rattus norvegicus, UniProt P22443); test: biochemical
T1 sequence (P22443 1-508): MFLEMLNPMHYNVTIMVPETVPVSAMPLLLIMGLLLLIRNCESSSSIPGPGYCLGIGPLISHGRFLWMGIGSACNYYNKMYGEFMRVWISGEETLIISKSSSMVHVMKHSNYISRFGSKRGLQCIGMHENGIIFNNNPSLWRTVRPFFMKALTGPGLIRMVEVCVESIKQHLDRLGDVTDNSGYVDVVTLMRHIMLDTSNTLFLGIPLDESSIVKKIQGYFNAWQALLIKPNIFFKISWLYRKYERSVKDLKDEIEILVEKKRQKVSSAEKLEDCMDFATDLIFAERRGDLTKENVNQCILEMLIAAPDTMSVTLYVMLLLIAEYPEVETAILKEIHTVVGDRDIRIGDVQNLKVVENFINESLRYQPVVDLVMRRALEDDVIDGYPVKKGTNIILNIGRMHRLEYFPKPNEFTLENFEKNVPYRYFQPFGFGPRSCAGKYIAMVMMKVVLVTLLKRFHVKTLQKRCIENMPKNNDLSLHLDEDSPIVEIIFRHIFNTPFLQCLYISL
Source text: IC50 of a test compound in aromatase inhibition was obtained from inhibition of ^3 H2 O released from [1,2-^3 H]-androstenedione in the microsome of a rat ovary.

aromatase [2] = target: T2, aromatase (Homo sapiens, UniProt P11511); test: Inhibiting activity on aromatase of human placenta origin (microsome, 3H2O release from [1,2-3H]androstenedione); type: biochemical; settings: in vitro, read-out: IC50 for in vitro aromatase inhibition
T2 construct: in the microsome of a human placenta; from tissue; host or cells: human placenta microsomes
T2 sequence (P11511 1-503): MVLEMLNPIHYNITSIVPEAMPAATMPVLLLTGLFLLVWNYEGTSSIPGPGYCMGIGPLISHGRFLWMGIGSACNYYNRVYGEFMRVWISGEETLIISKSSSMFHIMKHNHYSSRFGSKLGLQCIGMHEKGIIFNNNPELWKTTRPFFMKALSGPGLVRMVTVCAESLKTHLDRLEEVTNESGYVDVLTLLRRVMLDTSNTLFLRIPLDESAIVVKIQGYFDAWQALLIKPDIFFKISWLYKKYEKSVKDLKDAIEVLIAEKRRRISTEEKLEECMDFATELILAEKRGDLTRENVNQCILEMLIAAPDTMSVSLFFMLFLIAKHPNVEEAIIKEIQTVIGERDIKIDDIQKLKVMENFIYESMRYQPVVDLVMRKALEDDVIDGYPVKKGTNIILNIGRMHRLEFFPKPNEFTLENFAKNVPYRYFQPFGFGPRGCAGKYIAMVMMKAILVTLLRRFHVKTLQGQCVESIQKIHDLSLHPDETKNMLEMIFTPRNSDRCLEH
Source text: (a) Inhibiting activity on aromatase of human placenta origin:
Measured in accordance with the method described in Endocrine Research, Vol. 16, No. 2, p. 253 (1990).
The inhibiting activity of a test compound was obtained from inhibition of ^3 H2 O released from [1,2-^3 H]androstenedione in the microsome of a human placenta.
IC50 value for in vitro aromatase inhibition in the microsome of a human placenta was obtained according to the method (2)-(a).

[3] = system: dimethylbenzanthracene (DMBA)-induced tumor; test: Antitumor activity in rat, DMBA-induced breast carcinoma; type: in vivo; settings: orally, daily dose of from 0.04 to 1.0 mg/kg for 2 weeks, rats bearing breast carcinoma
Experimental: (c) Antitumor activity in rat:
The antitumor activity on breast carcinoma was measured in a dimethylbenzanthracene (DMBA)-induced tumor in a female Sprague-Dawlay rat.
This experimentation is commonly employed as a method for determining an antitumor activity in an animal model of breast carcinoma.

estradiol biosynthesis = test: In vivo inhibiting activity on estrogen production in rat (PMSG-primed, ovarian estradiol by RIA); settings: po, per os, 3 hours after administration, read-out: inhibition on estradiol biosynthesis with respect to the control
Experimental: (b) In vivo inhibiting activity on estrogen production in rat:
PMSG (pregnant mare serum gonadotropin) (100 IU/rat) was subcutaneously injected to an immature female Wister rat weighing 60 g. After 72 hours from the injection, a suspension of a test compound in 0.5 ml of 20% polyethylene glycol aqueous solution was given to the rat per os. A 20% polyethylene glycol aqueous solution was administered to a control group. After 3 hours from the administration of the drug or placebo, the rat was decapitated and bled out, and the ovary was removed. The estradiol concentration in the ovary was measured by RIA.

Compound	EC50 (aromatase [1])	IC50 (aromatase [1])	IC50 (aromatase [2])	suppression or regression of tumors in the mammary gland [3]	inhibition at 0.03 mg/kg (estradiol biosynthesis)
Fc1ccc(N(Cc2ccccc2)Cc2cccnc2)c(F)c1 [Comparative Compound 2, reference compound]	< 50 nM				
N#Cc1ccc(N(Cc2cc(F)cc(F)c2)c2cncnc2)cc1 [Example 34, 5-[N-(4-Cyanophenyl)-N-(3,5-difluorobenzyl)amino]pyrimidine]		0.22 nM	0.036 nM	suppression or regression of tumors	86%
